Measured values published in article PMC10895676, “Antiviral Activity of Lipophilic Nucleoside Tetraphosphate Compounds” (Journal of Medicinal Chemistry, 2024).
Entries after “also recorded” stand apart in the source; their conditions may differ.

Biological target: T1, human DNA polymerase β (Homo sapiens, UniProt P06746)
T1 construct: purchased Chimerx
Assay: Primer extension assay using human DNA polymerase β
Type: biochemical
Conditions: 60 min, 2 U, 37 °C
Text: Encouraged by the previously obtained results that γ-phosphate-modified-d4TDPs 3, γ-monoalkylated d4TTP derivatives as well as d4TDP were accepted as substrates by HIV-RT,[49],[50],[55],[59]−[61] δ-dialkylated d4T tetraphosphate analogues 4,5, δ-monoalkylated d4T tetraphosphate analogues 20 and 24 and d4T4P were investigated in primer extension assays in the presence of HIV-RT or the three different human DNA polymerases α, β and γ. D4TTP (for the compounds 4–9) and the natural thymidine triphosphate (TTP) were used as reference compounds.
Figure 6 Primer extension assay using HIV-RT (A), human polymerases α (B), β (C), and γ (D). (Figure 6A). Primer extension assay using HIV-RT (30 min, 6U). Lane 1: (+) dATP, dCTP, dGTP, and TTP with HIV-RT. Lane 2: (−) dATP, dCTP, dGTP, and TTP without HIV-RT. Lane 3: TTP. […] Lane 5: δ-(C4; C18)-d4T4P 4d. […] Lane 7: δ-(C18)-d4T4P 20. Lane 8: δ-C-(C18)-d4T4P 24. Lane 9: d4T4P. Lane 10: d4TTP. Lane 11: d4TDP. HIV-RT assay reaction conditions: 50 mM Tris–HCl (pH 8.6), 10 mM MgCl2, 40 mM KCl, 250 μM dNTPs, HIV-RT (6 U), 0.20 μM DNA hybrid, primer-template-hybrid 0.32 mM in a reaction volume of 10 μL, incubated at 37 °C for 0.5 h, 80 °C for 7 min. Primer extension assays: 50 mA, 45 w for 4 h. (Figure 6B). For human DNA polymerase α assay (60 min, 2 U): Lane 1: (+) dATP, dCTP, dGTP, and TTP with human polymerase α. Lane 2: (−) dATP, dCTP, dGTP, and TTP without human polymerase α. Lane 3: TTP. […] Lane 5: δ-(C4; C18)-d4T4P 4d. […] Lane 7: δ-(C18)-d4T4P 20. Lane 8: δ-C-(C18)-d4T4P 24. Lane 9: d4T4P. Lane 10: d4TTP. Human DNA polymerase α assay conditions: 60 mM Tris–HCl (pH 8), 5 mM Mg(OAc)2, 100 mM KCl, 1.0 mM dithiothreitol, 0.1 mM spermine, 0.01% (w/v) bovine serum albumin, 250 μM dNTPs, 2 U human polymerase α, 0.20 μM DNA hybrid, and primer-template-hybrid 0.32 mM in a reaction volume of 10 μL, incubated at 37 °C for 1 h, 80 °C for 7 min. Primer extension assays: 50 mA, 45 w for 3 h. (Figure 6C). For human DNA polymerase β assay (60 min, 2 U): Lane 1: (+) dATP, dCTP, dGTP, and TTP with human polymerase β. Lane 2: (−) dATP, dCTP, dGTP, and TTP without human polymerase β. Lane 3: TTP. […] Lane 5: δ-(C4; C18)-d4T4P 4d. […] Lane 7: δ-(C18)-d4T4P 20. Lane 8: δ-C-(C18)-d4T4P 24. Lane 9: d4T4P. Lane 10: d4TTP. Human DNA polymerase β assay conditions: 50 mM Tris–HCl (pH 8.7), 10 mM Mg(OAc)2, 100 mM KCl, 1.0 mM dithiothreitol, 0.1 mM spermine, 0.01% (w/v) bovine serum albumin, 15% glycerol, 250 μM dNTPs, 2 U human DNA polymerase β, 0.20 μM DNA hybrid, and primer-template-hybrid 0.32 mM in a reaction volume of 10 μL, incubated at 37 °C for 1 h, 80 °C for 7 min. Primer extension assays: 50 mA, 45 w for 3 h. (Figure 6D), For the human DNA polymerase γ assay (120 min, 2 U): Lane 1: (+) dATP, dCTP, dGTP, and TTP with human polymerase γ. Lane 2: (−) dATP, dCTP, dGTP, and TTP without human polymerase γ. Lane 3: TTP. […] Lane 5: δ-(C4; C18)-d4T4P 4d. […] Lane 7: δ-(C18)-d4T4P 20. Lane 8: δ-C-(C18)-d4T4P 24. Lane 9: d4T4P. Lane 10: d4TTP. Human polymerase γ assay conditions: 60 mM Tris–HCl (pH 8), 5 mM Mg(OAc)2, 1.0 mM dithiothreitol, 0.1 mM spermine, 0.01% (w/v) bovine serum albumin, 250 μM dNTPs, 2 U human polymerase γ, 0.5 μM MnCl2, 0.20 μM DNA hybrid, primer-template-hybrid 0.32 mM in a reaction volume of 10 μL, incubated at 37 °C for 2 h, 80 °C for 7 min. Primer extension assays: 50 mA, 45 w for 3 h.
HIV-RT and human polymerases α, β, and γ were bought from Roboklon and Chimerx. The fluorescent-labeled primer and template were obtained from Metabion. […]

**Q.** How did the “substrate for human DNA polymerase β (primer extension)” value (“substrate for human DNA polymerase β” below) turn out when `CCCCCCCCCCCCCCCCCCOP(=O)(OCCCC)OP(=O)(O)OP(=O)(O)OP(=O)(O)OC[C@@H]1C=C[C@H](n2cc(C)c(=O)[nH]c2=O)O1` (stereo partly drawn) [4d, δ-(Alkyl-C4; alkyl-C18)-d4T4P] was run?
**A.** The value was “not accepted”.

**Q.** `CCCCCCCCCCCCCCCCCCP(=O)(OCCCC)OP(=O)(O)OP(=O)(O)OP(=O)(O)OC[C@@H]1C=C[C@H](n2cc(C)c(=O)[nH]c2=O)O1` (stereo partly drawn) [5a, δ-(Alkyl-C4)-δ-C-(alkyl-C18)-d4T4P] was tested. Which “substrate for human DNA polymerase β” value did it give?
**A.** Its value is “No incorporation of d4TMP”.

**Q.** With `Cc1cn([C@H]2C=C[C@@H](COP(=O)(O)OP(=O)(O)OP(=O)(O)OP(=O)(O)O)O2)c(=O)[nH]c1=O` [d4T4P, 2′,3′-didehydro-2′,3′-dideoxythymidine-5′-tetraphosphate] as the molecule, how does the “substrate for human DNA polymerase β” value read?
**A.** Its value is “efficiently incorporated; also recorded: substrate”.
